Measurements: patent US20250345512A1, “COMBINATION SODIUM-GLUCOSE COTRANSPORTER INHIBITOR (SGLTI) INSULIN THERAPY FOR GLYCEMIC CONTROL IN TYPE 1 DIABETES” (University of Virginia Patent Foundation, priority 2022, published 2025)

Test system: participants with T1D
Assay: Randomized crossover clinical trial (NCT04201496): CGM glycemic outcomes with 5 mg daily empagliflozin adjunctive to AID (Control-IQ, CIQ) or PLGS (Basal-IQ, BIQ)
Format: in vivo, human
Description: FIG. 2 presents a study analysis relative to baseline, control IQ (CIQ) (e.g., AID), and basal IQ (BIQ) (e.g., PLGS) implementation, according to investigation that is demonstrable of one or more embodiments herein. Therein, an experimental arm (G1, G2) providing an initial daily dose of 5 mg empagliflozin (EMPA) is depicted against a control arm (G3, G4) without such dosing (NOEMPA). Relative characteristics of the analysis are provided below.
Study Design: A single-center, randomized, controlled, unblinded, crossover clinical trial (NCT04201496) compared four parallel groups, two groups in the experimental arm (EMPA) with 5 mg daily empagliflozin as adjunctive therapy to PLGS or AID, and two groups in the control arm (NOEMPA) with no drug and with a PLGS system (Basal-IQ, Tandem Diabetes Care) or AID system (Control-IQ, Tandem Diabetes Care). The groups within each arm differed from one another in the order of the randomly assigned crossover technological intervention, relative to PLGS being followed by AID or AID being followed by PLGS, respectively (FIG. 4). The study protocol was approved by the University of Virginia Institutional Review Board (IRB). An investigational device exemption (IDE), including an investigational new drug (IND) application for empagliflozin, was approved by the FDA. Safety aspects were overseen by an external data and safety monitoring board (DSMB). Participants: Major inclusion criteria were T1D treated with insulin for at least one year, use of continuous subcutaneous insulin infusion therapy for at least six months, age 18-65 yrs., no use of glucose lowering agents other than insulin, and Hb1Ac<9% (75 mmol/mol). Randomization: A (1:1:1:1) randomization assigned participants to either Group 1, AID-EMPA (4 weeks) followed by PLGS-EMPA (2 weeks), Group 2, PLGS-EMPA (2 weeks) followed by AID-EMPA (4 weeks), Group 3, AID-NOEMPA (4 weeks) followed by PLGS-NOEMPA (2 weeks), and Group 4, PLGS-NOEMPA (2 weeks) followed by AID-NOEMPA (4 weeks). Procedures: After confirmation of eligibility, participants underwent study equipment and medication training (experimental arm), or only study equipment training (control arm). Study equipment consisted of Dexcom G6® CGM (Dexcom Inc., San Diego, CA), Contour® Next blood glucose (Ascensia Diabetes Care, Basel, Switzerland) and Precision Xtra® blood ketone meters (Abbott, Alameda, CA) with their respective test strips; infusion sets, and the use of the t:slim X2™ insulin pump with Basal-IQ or Control-IQ technologies (Tandem Diabetes Care, San Diego, CA), according to randomization. […] Participants in the experimental arm were asked to record two days of baseline ketone values before initiating the use of the study drug. Thereafter, participants were directed to use the study CGM with EMPA for 1-2 weeks. A tolerance to the medication was assessed prior to the starting of the next study phase, including adherence to the protocol, ketone testing 2-4 times per day with monitored values not greater than 0.6 mmol/L on at least two successive occasions (the first testing upon waking in a fasted state), no adverse events relating to perineal infection or symptomatic postural hypotension, and no evidence of significant hypoglycemia <54 mg/dL, or any other listed adverse effects of the medication. Participants in the control arm were directed to use the study CGM for 1-2 weeks. Sample Size: The total sample size was projected to be 40 participants, assuming 1) 1:1:1:1 randomization; 2) 90% power and type 1 error a=0.01, further reinforcing the feasibility of hierarchical analyses. The projected recruitment sample was n=50, to accommodate up to 20% attrition rate without sacrificing statistical power. Analytical methods: For the primary analysis, TIR during the day in the 4-week AID period was compared between the two EMPA groups versus the two NOEMPA groups using a linear mixed-effects regression model while adjusting for pre-randomization HbAlc and age. […]

[1] = EMPA minus NOEMPA on same insulin system, adjusted for HbA1c
[2] = daytime (7:00-23:00), CIQ-EMPA vs. BIQ-NOEMPA, BIQ-EMPA vs. CIQ-NOEMPA
[3] = daytime (7:00-23:00), CIQ-EMPA vs. CIQ-NOEMPA, BIQ-EMPA vs. BIQ-NOEMPA
[4] = daytime (7:00-23:00), n = 16, mean ± SD
[5] = daytime (7:00-23:00), n = 16, median (IQR)

OC[C@H]1O[C@@H](c2ccc(Cl)c(Cc3ccc(O[C@H]4CCOC4)cc3)c2)[C@H](O)[C@@H](O)[C@@H]1O [BIQ-EMPA, empagliflozin]
24/7 HBGI - median (IQR) (24/7, n = 17): 3.3(1.8-4.7)
24/7 LBGI - median (IQR) (24/7, n = 17): 0.7(0.6-1)
24/7 glucose level <70 mg/dL (<3.9 mmol/L) - median % time (IQR) (24/7, n = 17): 1.7(0.9-2.7) %
24/7 Mean glucose level - (24/7, n = 17, mean ± SD): 141 ± 30 mg/dL
Difference (95% CI): 24/7 HBGI [1]: −3.7(−6.5 to −1)
Difference (95% CI): 24/7 LBGI [1]: 0.1(−0.3 to 0.6)
Difference (95% CI): 24/7 Mean glucose level [1]: −24.1(−42.2 to −6) mg/dL
Difference (95% CI): 24/7 glucose level <70 mg/dL % time [1]: 0.2(−1.7 to 2.1) percentage points
Difference (95% CI): Daytime CGM CV [1]: −4.0(−6.8 to −1.2) %
Difference (95% CI): Daytime CGM SD [1]: −13.2(−21.6 to −4.8) mg/dL
Difference (95% CI): daytime glucose % Time in range of 70 to 180 mg/dL (EMPA minus NOEMPA on same insulin system, adjusted for pre-randomization HbA1c): 16.5(7.3 to 26) ^ percentage points
Primary: daytime glucose % Time in range of 70 to 180 mg/dL (3.9-10.0 mmol/L) (daytime 7:00 to 23:00 h, n = 17, mean ± SD): 80 ± 14%
Difference (95% CI): % CGM time <50 mg/dL (<2.8 mmol/L) [2]: −0.3 percentage points
Difference (95% CI): % CGM time <60 mg/dL (<3.3 mmol/L) [2]: −0.2 percentage points
Difference (95% CI): % CGM time >180 mg/dL (>10.0 mmol/L) [2]: −9.5 percentage points
Difference (95% CI): % CGM time >250 mg/dL (>13.9 mmol/L) [2]: −2.2 percentage points
Difference (95% CI): % CGM time >300 mg/dL (>16.7 mmol/L) [2]: −0.4 percentage points
Difference (95% CI): CGM HBGI [2]: −1.9
Difference (95% CI): CGM LBGI [2]: 0.3
Difference (95% CI): CGM SD [2]: -7.1 mg/dL
Difference (95% CI): Mean CGM glucose [2]: -14.9 mg/dL
Difference (95% CI): % CGM time 70-140 mg/dL (<3.9-7.8 mmol/L) [3]: 17.6 percentage points
Difference (95% CI): % CGM time >180 mg/dL (>10.0 mmol/L) [3]: −16.7 percentage points
Difference (95% CI): % CGM time >250 mg/dL (>13.9 mmol/L) [3]: −7.6 percentage points
Difference (95% CI): % CGM time >300 mg/dL (>16.7 mmol/L) [3]: −2.7 percentage points
Difference (95% CI): CGM HBGI [3]: −4
Difference (95% CI): CGM LBGI [3]: −0.3
Difference (95% CI): CGM SD [3]: -13.2 mg/dL
Difference (95% CI): Mean CGM glucose [3]: -23.8 mg/dL
Difference (95% CI): % CGM time <70-180 mg/dL (3.9-10.0 mmol/L) (daytime (7:00-23:00), CIQ-EMPA vs. CIQ-NOEMPA, BIQ-EMPA vs. BIQ-NOEMPA, listed as PLGS-EMPA): 16 percentage points
% CGM time 70-140 mg/dL (3.9-7.8 mmol/L) [4]: 58.1 ± 16.5%
% CGM time 70-180 mg/dL (3.9-10.0 mmol/L) [4]: 80 ± 14.5%
CGM CV (%) [4]: 35.7 ± 3.5%
CGM SD [4]: 45 ± 14.6 mg/dL
Mean CGM glucose [4]: 139 ± 26 mg/dL
% CGM time 70-180 mg/dL (3.9-10.0 mmol/L) (daytime (7:00-23:00), n = 16, mean ± SD, listed as PLGS-EMPA): 80±14.5%
% CGM time <50 mg/dL (<2.8 mmol/L) [5]: 0(0-0.4) %
% CGM time <60 mg/dL (<3.3 mmol/L) [5]: 0.5(0.1-0.9) %
% CGM time <70 mg/dL (<3.9 mmol/L) [5]: 1.7(0.9-2.7) %
% CGM time >180 mg/dL (>10.0 mmol/L) [5]: 11.3(5.3-22.4) %
% CGM time >250 mg/dL (>13.9 mmol/L) [5]: 1.7(0.1-4.4) %
% CGM time >300 mg/dL (>16.7 mmol/L) [5]: 0.1(0-0.8) %
CGM HBGI [5]: 2.8(1.6-4.9)
CGM LBGI [5]: 0.7(0.6-0.9)
Daytime CGM CV - % (daytime, n = 17, mean ± SD): 30.4 ± 3.5%
Daytime CGM SD - (daytime, n = 17, mean ± SD): 44.9 ± 14.7 mg/dL
Difference: CGM HBGI (overall, CIQ-EMPA vs. BIQ-NOEMPA, BIQ-EMPA vs. CIQ-NOEMPA): −1.6
